Source: patent US9615503B2, “Method for cultivating sugar cane” (BASF SE, priority 2011, dated 2017)

Test system: sugar cane bud discs
Assay: Survival of sugar cane seedlings grown from treated bud discs (greenhouse, then acclimatization)
Assay type: in vivo
Conditions: for Number of surviving seedlings: of 648 planted buds per treatment, bud discs immersed 10 seconds in aqueous solution (pyraclostrobin 1 g/l, fipronil 0.8 g/l, fluxapyroxade 1.2 g/l, thiamethoxam 1.5 g/l), counted after 30 to 45 days greenhouse plus 15 days acclimatization, untreated 211; for Increase of survival rate [%]: relative to untreated buds (211 of 648 surviving), same treatment and concentrations as the number of surviving seedlings
Description: On an area of 0.1 hectares where sugar cane plants were growing with a distance between the rows of 1.5 m, the top part of the 8 months old sugar cane plants was removed by chopping off with a machete in a height of approximately 2 to 2.5 m. The removed top part was discarded. The below, remaining stalks were removed from the field by cutting them off closely above the ground. The stalks were then cut longitudinally into halves in such a manner that the buds were approximately centralized on the halves. From the stalk halves discs of ca. 2 cm of diameter each containing a bud and a part of the respective node were punched off with a punching machine. For each treatment, 648 bud discs were immersed for 10 seconds into an aqueous solution containing either pyraclostrobin (1 g/l; used as the commercial product Comet® of a concentration of 250 g/l of pyraclostrobin) or fipronil (0.8 g/l; used as the commercial product Regent® of a concentration of 800 g/kg of fipronil) or fluxapyroxade (1.2 g/l; used as the commercial product BAS 700 04F of a concentration of 300 g/l) or thiamethoxam (1.5 g/l; used as the commercial product Actara® 250 WG of a concentration of […]). The treated buds were then each placed in individual pots filled with humid coconut fibers. 648 bud discs stayed untreated for comparative reasons and were directly placed in individual pots filled with humid coconut fibers. The pots were placed in a greenhouse, and seedlings were grown from the planted bud discs at 25 to 35° C. and 70 to 80% humidity. While in the greenhouse, the buds/seedlings were watered sufficiently. 30 to 45 days after having been placed in the greenhouse, the surviving seedlings were transferred in an acclimatization area and kept for 15 days. Thereafter they were counted and then transplanted to a field.

Row | Compound | Number of surviving seedlings | Increase of survival rate [%]
1 | N#Cc1nn(-c2c(Cl)cc(C(F)(F)F)cc2Cl)c(N)c1[S+]([O-])C(F)(F)F (centres unmarked) [Fipronil, fipronil] | 236 | 11.8
2 | Cn1cc(C(=O)Nc2ccccc2-c2cc(F)c(F)c(F)c2)c(C(F)F)n1 [Fluxapyroxade, N-(3′,4′,5′-trifluorobiphenyl-2-yl)-3-difluoromethyl-1-methyl-1H-pyrazole-4-carboxamide] | 248 | 17.5
3 | COC(=O)N(OC)c1ccccc1COc1ccn(-c2ccc(Cl)cc2)n1 [Pyraclostrobin, pyraclostrobin] | 391 | 85.3
4 | CN1COCN(Cc2cnc(Cl)s2)/C1=N\[N+](=O)[O-] [Thiamethoxam, thiamethoxam] | 225 | 6.6
